In patent US20180207111A1, “IMMUNOTHERAPY FOR CASR-EXPRESSING CANCER (E.G. NEUROBLASTOMA)” (HOSPITAL SANT JOAN DE DEU, priority 2015, published 2018):

How the values were obtained:
LA-N-1 cells = assay: Morphological assessment of neuroblastoma cells exposed to Cinacalcet; assay type: cell-based, Homo sapiens; details: 1 μM Cinacalcet vs DMSO; day 3
Procedure: FIG. 1 is a micrograph showing the morphological assessment of LA-N-1 cells exposed to 1 μM Cinacalcet (C) or DMSO (vehicle (V)) for 3 days (3d) and 14 days (14d).
Three neuroblastoma cell lines LA-N-1, SK-N-LP and SH-SY5Y were used for this purpose. […] No expression of the CaSR is detectable in SH-SY5Y either. Thus, SK-N-LP and SH-SY5Y were stably transfected with pCMV-CaSR-GFP or pCMV-GFP. All cell lines were grown in the presence of 1 μM Cinacalcet (Selleck Chemicals, S1260) or DMSO for 21 days in P100 plates. Morphology was assessed daily. Total RNA was isolated at days 1, 3, 5, 7, 10, 14 and 21. Several markers were analyzed by RT-qPCR using SYBRgreen and specific primers or Taqman technology and gene-specific Assays-on-Demand (Applied Biosystems) (Table 1).
These features reached maximal expression between days 7 and 14 (FIG. 1). […] Neuroblastoma cytodifferentiation is an indication of this tumor becoming more benign, less proliferative. […] Moreover, upregulation of these differentiation-associated genes and CTAs both in vitro and in vivo (see Examples 2-4) validates the proposed in vitro model (doses used, time of exposure, etc) as a good model to evaluate neuroblastoma response to treatment with Cinacalcet.

LA-N-1 xenografts [1] = assay: Genome-wide expression analysis of xenografts, Affymetrix Human Gene Array 2.1 ST; assay type: in vivo
Procedure: (§1) Total RNA was isolated from 8 xenografts exposed to Cinacalcet (C) and 8 from the control group (V). These were the last 8 tumors excised in each group, so that analyzed xenografts were those exposed to the longest period of treatment (V5-V12 and C4-C11). Two different mRNA expression analyses were conducted: Genome-wide expression analysis by microarrays (Example 3) and by RT-qPCR (Example 4).
Genome-wide expression analyses were performed using Affymetrix Human and Mouse Gene Array 2.1 ST (Affymetrix, reference number 902136 for human gene array and 902120 for mouse gene array) as per manufacturer's protocol. Procedures to analyze results included: Quality control of the arrays (following this step, xenograft C6 was removed from further analyses); filtering and normalization; selection of differentially expressed genes; single comparison (treated versus control samples); list of differentially expressed genes ranked by significance; Volcano plots showing the most differentially expressed genes; heatmaps of the clustered expression profiles; and analysis of biological significance through enrichment analysis against the Gene Ontologies, KEGG (Kyoto Encyclopedia of Genes and Genomes) and Ingenuity pathways.
However, these differences of gene expression were not statistically significant, adjusted P-value >0.05 (Table 3). Nonetheless, in this first analysis, corresponding to heatmap on FIG. 3, it was apparent that a group of genes were specifically modulated in the three tumors exposed to Cinacalcet for the longest period of time. This was confirmed by a second genome-wide expression analysis that examined differentially expressed genes in these three specimens (C9-C11) compared to the 8 vehicle-treated tumors (V5-V12) (FIG. 4).

LA-N-1 xenografts [2] = assay: RT-qPCR mRNA expression in xenografts; assay type: in vivo, human
Procedure: as §1
Validation of microarrays data was conducted by means of RT-qPCR. This technique was performed using SYBRgreen and specific primers or Taqman technology and gene-specific Assays-on-Demand (Applied Biosystems) (Table 1). This technique was also used to analyze the expression of other CTAs (members of the MAGE family and CTCFL), genes associated with differentiation and calcium-signaling pathways in further detail. Upregulation of CTCFL (FIG. 5A), MAGE A2, MAGE A3 and SSX4/48 (FIG. 5B), NTRK3 (FIG. 5C), ADCY8, PRKCA and RYR2 (FIG. 5D) was detected mainly in the two specimens exposed for the longest time to Cinacalcet (C10-C11).

[3] = three longest-treated xenografts C9-C11 vs vehicle V5-V12, adjusted P 0.00986984
[4] = three longest-treated xenografts C9-C11 vs vehicle V5-V12, adjusted P 0.01746325
[5] = three longest-treated xenografts C9-C11 vs vehicle V5-V12, adjusted P 0.01874439
[6] = three longest-treated xenografts C9-C11 vs vehicle V5-V12, adjusted P 0.02269447
[7] = three longest-treated xenografts C9-C11 vs vehicle V5-V12, adjusted P 0.0249218
[8] = three longest-treated xenografts C9-C11 vs vehicle V5-V12, adjusted P 0.04520061
[9] = three longest-treated xenografts C9-C11 vs vehicle V5-V12, adjusted P 0.04907024
[10] = three longest-treated xenografts C9-C11 vs vehicle V5-V12, adjusted P 0.05146784
[11] = xenografts C4, C5, C7-C11 vs vehicle V5-V12, 10 mg/kg/day oral, adjusted P 0.35366385
[12] = xenografts C4, C5, C7-C11 vs vehicle V5-V12, 10 mg/kg/day oral, adjusted P 0.52209349
[13] = xenografts C4, C5, C7-C11 vs vehicle V5-V12, 10 mg/kg/day oral, adjusted P 0.61235652
[14] = xenografts, RT-qPCR, mainly in C10-C11 (longest exposure), FIG. 5B
[15] = xenografts, RT-qPCR, mainly in C10-C11 (longest exposure), FIG. 5D

SMILES: C[C@@H](NCCCc1cccc(C(F)(F)F)c1)c1cccc2ccccc12 [Cinacalcet]
- Morphological features of neuronal differentiation (LA-N-1 cells): extensive neurite outgrowth
- Log fold change, probe 17104825 (CXorf49//CXorf49B) (LA-N-1 xenografts [1]; three longest-treated xenografts C9-C11 vs vehicle V5-V12, adjusted P 0.00358764): 1.857
- Log fold change, probe 16695923 (FAM78B) (LA-N-1 xenografts [1]; [3]): 1.543
- Log fold change, probe 17070589 (CNBD1) (LA-N-1 xenografts [1]; [3]): 1.801
- Log fold change, probe 17103272 (SSX4B//SSX4) (LA-N-1 xenografts [1]; [3]): 1.389
- Log fold change, probe 17104821 (CXorf49//CXorf49B) (LA-N-1 xenografts [1]; [3]): 2.714
- Log fold change, probe 16972634 (LOC285500) (LA-N-1 xenografts [1]; three longest-treated xenografts C9-C11 vs vehicle V5-V12, adjusted P 0.01361569): 1.359
- Log fold change, probe 17103626 (GAGE12G//GAGE12F//GAGE12I//GAGE7//... GAGE family, Entrez 645073) (LA-N-1 xenografts [1]; three longest-treated xenografts C9-C11 vs vehicle V5-V12, adjusted P 0.01682153): 2.202
- Log fold change, probe 17103647 (GAGE2A//GAGE2C//GAGE2B//GAGE2D//... GAGE family, Entrez 729447) (LA-N-1 xenografts [1]; [4]): 2.059
- Log fold change, probe 17103679 (GAGE2A//GAGE2C//GAGE12G//GAGE12F//... GAGE family, Entrez 729447) (LA-N-1 xenografts [1]; [4]): 2.03
- Log fold change, probe 16837128 (PRKCA) (LA-N-1 xenografts [1]; [5]): 1.165
- Log fold change, probe 16926807 (CECR7) (LA-N-1 xenografts [1]; [5]): 1.23
- Log fold change, probe 17103653 (GAGE12C//GAGE12D//GAGE12E//GAGE12G//... GAGE family, Entrez 729422) (LA-N-1 xenografts [1]; [5]): 2.183
- Log fold change, probe 17103655 (GAGE12C//GAGE12D//GAGE12E//GAGE12H//... GAGE family, Entrez 729422) (LA-N-1 xenografts [1]; [5]): 2.032
- Log fold change, probe 17103673 (GAGE12G//GAGE12C//GAGE12D//GAGE12E//... GAGE family, Entrez 645073) (LA-N-1 xenografts [1]; [5]): 1.962
- Log fold change, probe 16982161 (PDLIM3) (LA-N-1 xenografts [1]; [6]): 1.187
- Log fold change, probe 16986694 (SPZ1) (LA-N-1 xenografts [1]; [6]): 1.239
- Log fold change, probe 17103614 (GAGE12J//GAGE2D//GAGE2E//GAGE8//... GAGE family, Entrez 729396) (LA-N-1 xenografts [1]; [6]): 1.853
- Log fold change, probe 17103620 (GAGE13//GAGE12D//GAGE12E//GAGE12B//... GAGE family, Entrez 645051) (LA-N-1 xenografts [1]; [6]): 2.07
- Log fold change, probe 17103690 (GAGE12H//GAGE12C//GAGE12D//GAGE12E//... GAGE family, Entrez 729442) (LA-N-1 xenografts [1]; [6]): 1.931
- Log fold change, probe 17110576 (SSX4//SSX4B) (LA-N-1 xenografts [1]; [6]): 1.272
- Log fold change, probe 16938527 (RBMS3) (LA-N-1 xenografts [1]; three longest-treated xenografts C9-C11 vs vehicle V5-V12, adjusted P 0.02361429): 1.243
- Log fold change, probe 16711753 (PROSER2-AS1) (LA-N-1 xenografts [1]; [7]): 1.36
- Log fold change, probe 16838249 (LOC100507351) (LA-N-1 xenografts [1]; [7]): 1.078
- Log fold change, probe 17111994 (RGAG4) (LA-N-1 xenografts [1]; [7]): 1.076
- Log fold change, probe 17113928 (TENM1) (LA-N-1 xenografts [1]; three longest-treated xenografts C9-C11 vs vehicle V5-V12, adjusted P 0.03166044): 1.577
- Log fold change, probe 16679142 (RYR2) (LA-N-1 xenografts [1]; three longest-treated xenografts C9-C11 vs vehicle V5-V12, adjusted P 0.04211565): 1.356
- Log fold change, probe 17043613 (LOC100505938) (LA-N-1 xenografts [1]; three longest-treated xenografts C9-C11 vs vehicle V5-V12, adjusted P 0.04288827): 1.14
- Log fold change, probe 16970118 (SYNPO2) (LA-N-1 xenografts [1]; [8]): 1.722
- Log fold change, probe 17115014 (GABRA3) (LA-N-1 xenografts [1]; [8]): 1.248
- Log fold change, probe 16732397 (POU2F3) (LA-N-1 xenografts [1]; three longest-treated xenografts C9-C11 vs vehicle V5-V12, adjusted P 0.0462006): 1.148
- Log fold change, probe 16752147 (NEUROD4) (LA-N-1 xenografts [1]; [9]): 1.009
- Log fold change, probe 16928510 (SEZ6L) (LA-N-1 xenografts [1]; [9]): 1.17
- Log fold change, probe 16812942 (NTRK3) (LA-N-1 xenografts [1]; [10]): 1.186
- Log fold change, probe 16920617 (CTCFL) (LA-N-1 xenografts [1]; [10]): 1.866
- Log fold change, probe 16837226 (SNORA38B) (LA-N-1 xenografts [1]; [11]): 1.107
- Log fold change, probe 16902703 (POTEF) (LA-N-1 xenografts [1]; [11]): 1.124
- Log fold change, probe 17103626 (GAGE12G//GAGE12F//GAGE12I//GAGE7//... GAGE family, Entrez 645073) (LA-N-1 xenografts [1]; xenografts C4, C5, C7-C11 vs vehicle V5-V12, 10 mg/kg/day oral, adjusted P 0.39648602): 1.489
- Log fold change, probe 17103647 (GAGE2A//GAGE2C//GAGE2B//GAGE2D//... GAGE family, Entrez 729447) (LA-N-1 xenografts [1]; xenografts C4, C5, C7-C11 vs vehicle V5-V12, 10 mg/kg/day oral, adjusted P 0.4625512): 1.341
- Log fold change, probe 17103679 (GAGE2A//GAGE2C//GAGE12G//GAGE12F//... GAGE family, Entrez 729447) (LA-N-1 xenografts [1]; xenografts C4, C5, C7-C11 vs vehicle V5-V12, 10 mg/kg/day oral, adjusted P 0.47520907): 1.318
- Log fold change, probe 17103614 (GAGE12J//GAGE2D//GAGE2E//GAGE8//... GAGE family, Entrez 729396) (LA-N-1 xenografts [1]; [12]): 1.191
- Log fold change, probe 17103620 (GAGE13//GAGE12D//GAGE12E//GAGE12B//... GAGE family, Entrez 645051) (LA-N-1 xenografts [1]; [12]): 1.314
- Log fold change, probe 17103653 (GAGE12C//GAGE12D//GAGE12E//GAGE12G//... GAGE family, Entrez 729422) (LA-N-1 xenografts [1]; [12]): 1.354
- Log fold change, probe 17103655 (GAGE12C//GAGE12D//GAGE12E//GAGE12H//... GAGE family, Entrez 729422) (LA-N-1 xenografts [1]; [12]): 1.313
- Log fold change, probe 17103673 (GAGE12G//GAGE12C//... GAGE family, Entrez 645073) (LA-N-1 xenografts [1]; [12]): 1.257
- Log fold change, probe 17103690 (GAGE12H//GAGE12C//GAGE12D//GAGE12E//... GAGE family, Entrez 729442) (LA-N-1 xenografts [1]; [12]): 1.261
- Log fold change, probe 16920617 (CTCFL) (LA-N-1 xenografts [1]; [13]): 1.137
- Log fold change, probe 17104821 (CXorf49//CXorf49B) (LA-N-1 xenografts [1]; [13]): 1.423
- Increase in relative mRNA expression of GAGE mRNA (LA-N-1 xenografts [2]; xenograft specimen C11, long-term treatment, data not shown): up to 100 fold
- Relative mRNA expression of CTCFL (LA-N-1 xenografts [2]; xenografts, RT-qPCR, mainly in C10-C11 (longest exposure), FIG. 5A): Upregulation
- Relative mRNA expression of MAGE A2 (LA-N-1 xenografts [2]; [14]): Upregulation
- Relative mRNA expression of MAGE A3 (LA-N-1 xenografts [2]; [14]): Upregulation
- Relative mRNA expression of SSX4/48 (LA-N-1 xenografts [2]; [14]): Upregulation
- Relative mRNA expression of NTRK3 (LA-N-1 xenografts [2]; xenografts, RT-qPCR, mainly in C10-C11 (longest exposure), FIG. 5C): Upregulation
- Relative mRNA expression of ADCY8 (LA-N-1 xenografts [2]; [15]): Upregulation
- Relative mRNA expression of PRKCA (LA-N-1 xenografts [2]; [15]): Upregulation
- Relative mRNA expression of RYR2 (LA-N-1 xenografts [2]; [15]): Upregulation
